Values joined by “and” are separate entries in the source; they are usually repeats but may differ in a detail not shown here. Equal values may be shown once. Read-outs that look alike come from different tables or passages of the source.
What was measured:
[1] = cited from earlier work
[2] = system: rats with monocrotaline induced pulmonary arterial hypertension; experiment: Monocrotaline rat model for treatment of pulmonary arterial hypertension, dosing Day 14 till Day 28 (Example 2); format: in vivo, Male Sprague-Dawley rats; details: for inhibition at 30 mg/kg: Rattus norvegicus, po
Method: The studies were conducted for hemodynamic evaluation of Temozolomide in anesthetized Sprague Dawley rats treated with monocrotaline (“MCT”) to induce pulmonary arterial hypertension. Sildenafil was used as an internal control to compare the effects of temozolomide
The effects of temozolomide were evaluated in rats with monocrotaline induced pulmonary arterial hypertension using sildenafil as standard care treatment. Male Sprague-Dawley rats were orally administered vehicle, temozolomide (30 mg/kg, given once daily every day starting on Day 14 till Day 28), or sildenafil (100 mg/kg, given once daily every day starting on Day 14 till Day 28) (n=12 in each group). Rats received a single injection of monocrotaline (50 mg/kg, s.c.) on Study Day 1. On the twenty-eighth day following monocrotaline dosing, the rats were anesthetized with ketamine/xylazine for terminal monitoring of pulmonary and systemic arterial pressures along with heart rate.
Test Item: Vehicle (0.5% Methylcellulose+0.2% Tween 80 in deionized water, temozolomide (30 mg/kg given once daily starting on Day 14 till Day 28; Sildenafil (100 mg/kg, administered once daily starting on Day 14 till Day 28)
(§1) Route of Administration: Oral
Study Design: The study was planned and conducted according to design depicted below in Table 7
Pulmonary arterial hypertension was induced by injecting 50 mg/kg dose of monocrotaline (3 mL/Kg MCT in 50% DMSO in water) subcutaneously to all the randomized Male Sprague-Dawley rats of Groups VII, VIII, IX, and X (except negative control group). Negative control group (Group VI, DMSO group) received a single dose of 3 mL/kg 50% DMSO in water for injection subcutaneously. Male Sprague-Dawley rats in groups VII, VIII, IX, and X were administered 50 mg/kg of body weight of monocrotaline in DMSO subcutaneously to induce PAH on day 1. The rats of vehicle positive control group (Group VIII) received 5 ml of vehicle every morning. The rats of the temozolomide group (Group IX) were orally administered Temozolomide (30 mg/kg given once daily starting on Day 14 till Day 28) and rats of sildenafil group (Group X) were orally administered sildenafil (100 mg/kg given once daily starting on Day 14 till Day 28). On the twenty-eighth day after monocrotaline dosing, the rats were anesthetized with ketamine/xylazine for terminal monitoring of pulmonary and systemic arterial pressures along with heart rate. It is understood that from day 1 till administration of test compounds i.e till day 14, rates of all groups were suffering from PAH due to administration of MCT. Thus the study was conducted to evaluate the efficacy of Temozolomide treatment for PAH. Sildenafil was used as an internal control to compare the effects of Temozolomide.

[3] = system: rats with monocrotaline induced pulmonary arterial hypertension; experiment: Monocrotaline rat model for pulmonary arterial hypertension, dosing from Day 1 for 28 days (Example 1); format: in vivo, Male Sprague-Dawley rats
Method: The studies were conducted for hemodynamic evaluation of temozolomide in anesthetized sprague dawley rats treated with monocrotaline (“MCT”) to induce pulmonary arterial hypertension. Sildenafil was used as an internal control to compare the effects of temozolomide.
The effects of temozolomide were evaluated in rats with monocrotaline induced pulmonary arterial hypertension using sildenafil as standard care treatment. Male Sprague-Dawley rats were orally administered vehicle, temozolomide (10 mg/kg given once daily every day for 28 days starting on Day 1), or sildenafil (100 mg/kg, administered once daily every day for 28 days starting on Day 1) (n=12 in each group). Rats received a single injection of monocrotaline (50 mg/kg, s.c.) on Study Day 1. On the twenty-eighth day following monocrotaline dosing, the rats were anesthetized with ketamine/xylazine for terminal monitoring of pulmonary and systemic arterial pressures along with heart rate.
Test Item: Vehicle (0.5% Methylcellulose+0.2% Tween 80 in deionized water, Temozolomide (10 mg/kg given once daily for 28 days; Sildenafil (100 mg/kg administered once daily)
as §1
Study Design: The study was planned and conducted according to design depicted below in Table 1
Pulmonary arterial hypertension was induced by injecting monocrotaline (3 mL/Kg MCT in 50% DMSO in water) subcutaneously at a dose of 50 mg/kg of body weight to all the randomized Male Sprague-Dawley rats of Groups II, III,IV and V (except negative control group). Negative control group (Group I, DMSO group) received a single dose of 3 mL/kg 50% DMSO in water for injection subcutaneously. The positive control group (Group III) received 5 ml of vehicle every morning. The rats of temozolomide group (Group IV) were orally administered temozolomide (10 mg/kg given once daily for 28 days starting on Day 1) and rats of sildenafil group (Group V) were orally administered sildenafil (100 mg/kg given once daily for 28 days starting on Day 1) On the twenty-eighth day after monocrotaline dosing, the rats were anesthetized with ketamine/xylazine for terminal monitoring of pulmonary and systemic arterial pressures along with heart rate.

[4] = administered after a modified high-fat breakfast
[5] = group mean, Temozolomide 30 mg/Kg p.o. QD Day 14 till Day 28, Day 28
[6] = individual animals, Temozolomide 30 mg/Kg p.o. QD Day 14 till Day 28, Day 28
[7] = group mean, Temozolomide 10 mg/Kg p.o. QD 28 days from Day 1, Day 28
[8] = individual animals, Temozolomide 10 mg/Kg p.o. QD 28 days from Day 1, Day 28

## Cn1nnc2c(C(N)=O)ncn2c1=O [Temozolomide]
[1]; [4]
  AUC decrease: 9%
  Mean peak plasma concentration decrease: 32%
  median Tmax: 2.25 h
  median Tmax increase: 2 fold
[1]; oral administration
  absorption: rapidly and completely absorbed
[2]; Temozolomide 30 mg/Kg p.o. QD Day 14 till Day 28, positive control = 0.00, read-out: % Inhibition of Right Ventricular Pressure (RVP)
  inhibition at 30 mg/kg: 53.9%
[2]; Temozolomide 30 mg/Kg p.o. QD Day 14 till Day 28, positive control = 0.00, read-out: % Inhibition of Right Ventricular Systolic Pressure (RVSP)
  inhibition at 30 mg/kg: 44.8%
[2]; Temozolomide 30 mg/Kg p.o. QD Day 14 till Day 28, positive control = 0.00
  % Inhibition of Fulton index : Hypertrophy (RV/LV + S): 19.83%
[2]; Temozolomide 30 mg/kg vs Sildenafil 100 mg/kg
  activity in treatment of PAH: comparable among with Sildenafil activity
[2]; after 28 days, 30 mg/kg/QD/day, Day 14 till Day 28
  systolic and mean pulmonary arterial pressures compared to the vehicle group: differences in systolic and mean pulmonary arterial pressures
[2]; [5]
  Fulton index: Hypertrophy (RV/LV + S), Mean: 0.444
  Right Ventricle weight, Mean: 0.274 gms
  Right Ventricular Pressure (RVP), Mean: 15.802 mmHg
  Right Ventricular Systolic Pressure (RVSP), Mean: 37.936 mmHg
  Right ventricle/Body weight, Mean: 0.0009
[2]; [6]
  Fulton index: Hypertrophy (RV/LV + S): 0.502 and 0.480 and 0.481 (2×) and 0.382 and 0.357 and 0.485 and 0.506 and 0.341 and 0.427
  Right Ventricle weight: 0.311 gms and 0.286 gms and 0.210 gms and 0.237 gms and 0.273 gms and 0.343 gms and 0.232 gms and 0.245 gms and 0.283 gms and 0.318 gms
  Right Ventricular Pressure (RVP): 15.151 mmHg and 19.476 mmHg and 14.308 mmHg and 12.295 mmHg and 15.993 mmHg and 21.577 mmHg and 22.479 mmHg and 12.349 mmHg and 12.363 mmHg and 12.035 mmHg
  Right ventricle/Body weight: 0.0011 (3×) and 0.0010 and 0.0008 (3×) and 0.0007 and 0.0009 (2×)
[2]; individual animals, Temozolomide 30 mg/Kg p.o. QD Day 14 till Day 28, MCT 50 mg/kg s.c. Day 1, Day 28
  Right Ventricular Systolic Pressure (RVSP): 39.693 mmHg and 42.429 mmHg and 31.561 mmHg and 36.888 mmHg and 37.763 mmHg and 48.504 mmHg and 45.392 mmHg and 33.928 mmHg and 29.989 mmHg and 33.218 mmHg
[3]; Temozolomide 10 mg/kg vs Sildenafil 100 mg/kg
  activity in controlling or reducing PAH: comparable among with Sildenafil activity
[3]; after 28 days, 10 mg/kg/QD/day
  systolic and mean pulmonary arterial pressures compared to the vehicle group: differences in systolic and mean pulmonary arterial pressures
[3]; [7]
  Fulton index: Hypertrophy (RV/LV + S), Mean: 0.342
  RV/Body wt, Mean: 0.0007
  Right Ventricular Pressure (RVP), Mean: 15.548 mmHg
  Right Ventricular Systolic Pressure (RVSP), Mean: 33.732 mmHg
  Right ventricle (RV), Mean: 0.227 g
[3]; [8]
  Fulton index: Hypertrophy (RV/LV + S): 0.325 and 0.333 and 0.450 and 0.294 and 0.406 and 0.287 and 0.277 and 0.255 and 0.519 and 0.345 and 0.273
  RV/Body wt: 0.0006 (3×) and 0.0008 (2×) and 0.0005 (4×) and 0.0011 and 0.0007
  Right Ventricular Pressure (RVP): 11.178 mmHg and 15.927 mmHg and 16.493 mmHg and 19.994 mmHg and 15.532 mmHg and 12.593 mmHg and 16.840 mmHg and 17.431 mmHg and 16.896 mmHg and 16.462 mmHg and 11.679 mmHg
  Right ventricle (RV): 0.244 g and 0.220 g (2×) and 0.298 g and 0.202 g and 0.268 g and 0.218 g and 0.197 g and 0.167 g and 0.311 g and 0.156 g
[3]; individual animals, Temozolomide 10 mg/Kg p.o. QD 28 days from Day 1, MCT 50 mg/kg s.c., Day 28
  Right Ventricular Systolic Pressure (RVSP): 29.626 mmHg and 33.857 mmHg and 35.059 mmHg and 38.531 mmHg and 30.456 mmHg and 30.333 mmHg and 36.128 mmHg and 35.368 mmHg and 40.220 mmHg and 33.582 mmHg and 27.895 mmHg
